Experimental data published in article PMC9130233, “An inhibitor of RORγ for chronic pulmonary obstructive disease treatment” (Scientific Reports, 2022).
“And” between values parts separate entries of the source, which are not always exact repeats. Equal values may be shown once.

Key:
mouse RORγ LBD = molecular target: T1, mouse RORγ LBD (Mus musculus, UniProt P51450); test: RORγt-LBD co-activator ligand binding TR-FRET assay, mouse; settings: n = 6
T1 construct: RORγt-LBD region 264-516aa; made in house
Excerpt: To identify small molecule RORγ inhibitors, we conducted in vitro screening using a TR-FRET binding assay to determine the inhibition of RORγ with a series of different compounds. With extensive effort and from hit identification to lead optimization, PCCR-1 was identified[29] (Fig. 1A). Based on the homology of the ligand binding domains (LBD) between different ROR isoforms (hRORα, hRORβ and hRORγ), slight variations have been observed in the LBD regions which possibly lead to differences in competitive binding between the isoforms (Fig. 1B). Simultaneous binding of a tracer and antibody results in an increase in fluorescence resonance energy transfer (FRET), which decreases with displacement of the tracer upon inhibitor binding.
The human and mouse RORγt cDNA clones were obtained from OriGene (MD USA). […] The next day, plate was read on Infinite F500 reader (Magellan Tecan Switzerland). […] The percent activity of each dilution was determined as the ratio of background corrected signal to the background corrected signal of wells receiving only DMSO. IC50 values were determined by fitting percent inhibition data in GraphPad Prism (version-5.01) software.

LXRα = tested on: T2, LXRα; test: TR-FRET selectivity binding assay, LXRα
T2 construct: purchased Invitrogen
Excerpt: (§1) Based on the homology of the ligand binding domains, 3 different isoforms of ROR (hRORα, hRORβ and hRORγ) are reported. Small variations in the LBD regions possibly lead to differences in competitive binding between the nuclear receptors of the ROR isoforms (Fig. 1b). Similar to the assessment of RORγ binding assay, TR-FRET binding assays were also used to assess the affinity of PCCR-1 for other ROR isoforms. […] This was reconfirmed in cellular functional assays for the selected isoforms and nuclear receptors using Gal4 DBD with luciferase reporter system from Indigo (PA, USA). […] In addition, both cellular agonist and antagonist effects as well as for enzyme activity were evaluated with a known reference compound for each target, using a radiolabeled method (Eurofins Cerep, France, Table 1).
For selectivity, the ROR isoforms RORα, FXR, LXRα, LXRβ, RXR, RARα were incubated with compound for 60 min at 22 °C followed by detection mix containing respective agonist (All trans retinoic acid for RARα, T0901317 for LXRα, LXRβ, 9-cis Retinoic acid for RXR, GW-4064 for FXR) and coactivator peptide (FD22 for RORα, PGC1α for RXR, RARα, TRAP220 for LXRα, LXRβ, SRC2-2 for FXR) and Tb-anti GST antibody prepared in assay buffer were added into a 384-well white plate. Reading taken after overnight incubation and the data analysis done as per the protocol mentioned in RORγt-LBD and co-activator ligand binding assay.

[1] = molecular target: non RORγ isoforms and other major nuclear receptors; test: TR-FRET binding assays, other ROR isoforms and major nuclear receptors (summary)
Excerpt: as §1
For selectivity, the ROR isoforms RORα, FXR, LXRα, LXRβ, RXR, RARα were incubated with compound for 60 min at 22 °C followed by detection mix containing respective agonist (All trans retinoic acid for RARα, T0901317 for LXRα, LXRβ, 9-cis Retinoic acid for RXR, GW-4064 for FXR) and coactivator peptide (FD22 for RORα, PGC1α for RXR, RARα, TRAP220 for LXRα, LXRβ, SRC2-2 for FXR) and Tb-anti GST antibody prepared in assay buffer were added into a 384-well white plate. […]

mPPARγ = test: Nuclear receptors: functional assay, mPPARγ agonism; assay type: cell-based, mouse; design: key: NSE No significant effect; V wk very weak (very low-level agonist activity seen with mPPARγ); settings: nuclear receptors: functional assays
Excerpt: as §1

[2] = tested on: Th1 (IL-2 and IFN-γ) and Th2 (IL-4, IL-13 and IL-10) dependent cytokines in hPBMCs; test: Th1 and Th2 cytokine release, human PBMC, TCR activating conditions; assay type: cell-based; settings: hPBMC, even at 10 µM
Procedure: An increase in the levels of Th17 dependent cytokine in the peripheral blood of COPD patients as compared to the Th1 and Th2 dependent cytokines has been well documented in a subset of COPD patients. A comparative study was performed under TCR activating conditions to evaluate the potencies of PCCR-1 for inhibition across Th1, Th2 and Th17 dependent cytokines using hPBMCs.
Human whole blood from healthy subjects were procured from Clinical Research Unit, Sanpada. Clinical Research Center Glenmark (Plot No. D, 508, Turbhe, TTC Industrial Area, MIDC, Sanpada, Navi Mumbai, Maharashtra 400705, India). PBMCs were isolated using heparinized blood with Ficoll Histopaque. Briefly, the cells were seeded in 96-well plate pre-coated with human anti-CD3 mAb (10 µg/mL), post 30 min of compound treatment cells were stimulated with human anti-CD28 mAb (2 µg/mL). After 72 h of culture, the supernatant was collected for Th1/Th2 cytokines; IFN-γ, IL-2, IL-4 and IL-10 and measured by ELISA. For Th17 polarization assay, the following cytokine cocktail was used: IL-1β (10 ng/ml), IL-23(10 ng/ml), IL-6 (50 ng/ml), TGF-β1 (3 ng/ml), IL-2 (20U/ml) and supernatants were used for measuring IL-17 and IL-22 by ELISA.

T1 sequence (P51450 264-516): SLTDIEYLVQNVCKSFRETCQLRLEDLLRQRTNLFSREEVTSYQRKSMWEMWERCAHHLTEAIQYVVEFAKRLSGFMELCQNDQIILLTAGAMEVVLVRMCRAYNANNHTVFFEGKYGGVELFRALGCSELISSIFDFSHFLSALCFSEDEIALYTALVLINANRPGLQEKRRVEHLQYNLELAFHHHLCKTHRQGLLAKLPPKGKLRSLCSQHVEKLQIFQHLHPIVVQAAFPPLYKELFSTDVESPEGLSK

For `CCn1c(C(C)(C)Oc2ccc(F)cc2F)nc2cc(NC(=O)Cc3ccc(S(=O)(=O)CC)cc3)ccc21` [PCCR-1], the IC50 (mouse RORγ LBD) was 778 nM, the “% Inhibition LXRα” value (LXRα; 1 µM) was 11.38% and the “% Inhibition LXRα” value (LXRα; 10 µM) was 30.37%. For the same molecule, the “Fold over hRORγ, LXRα” value (LXRα; vs RORg IC50 31.87 nM) was greater than 313.7 fold, the IC50 ([1]; TR-FRET, read-out: IC50 for the rest of the non RORγ isoforms and other major nuclear receptors) was greater than 10000 nM and the “fold selectivity over other ROR isoforms / nuclear receptors” value ([1]; relative to RORγ) was > 313.7 fold and > 300 fold. The “mPPARγ(agonism)” value (mPPARγ) was “V wk” and the “inhibition of Th1 (IL-2 and IFN-γ) and Th2 (IL-4, IL-13 and IL-10) dependent cytokines” value [2] was “did not show significant inhibition”.
